Experiment: Stability tests of the crystal forms (high temperature, high humidity, light)
Format: physicochemical
Details: general statement; tests at 60° C., 40° C./75% humidity, 5000 Lx described but data not given
Method: The crystal forms prepared in Examples 1-3 were tested in the accelerated test under high temperature conditions for stability in accordance with Guidelines for the Stability Test of Pharmaceutical Ingredients and Pharmaceutical Preparations (Chinese Pharmacopoeia 2010 Appendix XIXC).
The crystal forms C, D and E prepared in Examples 1-3 were placed in an open-clean container at 60° C., respectively. The samples were taken for test on day 10, day 20 and day 30, respectively. The results were compared with the initial test result on day 0.
The crystal forms prepared in Examples 1-3 were tested in the accelerated test under high humidity conditions for stability in accordance with Guidelines for the Stability Test of Pharmaceutical Ingredients and Pharmaceutical Preparations (Chinese Pharmacopoeia 2010 Appendix XIXC).
The crystal forms C, D and E prepared in Examples 1-3 were subjected to an accelerated test in a constant temperature and humidity vessel under the conditions of 40° C./75% humidity (open). The samples were taken for test on day 30, day 60 and day 90, respectively. The results were compared with the initial test result on day 0. […]

## CCCCOc1nc(N)c2[nH]cc(Cc3ccc(CN4CCCC4)cc3)c2n1.O=C(O)/C=C\C(=O)O [crystal form C, Maleate of 2-butoxy-7-(4-(pyrrolidin-1-ylmethyl)benzyl)-5H-pyrrolo[3,2-d]pyrimidin-4-amine]
  stability of the crystal form: good stability

Reference: patent US10780091B2, “TLR7 agonist maleate salt, crystalline forms C, D and E thereof, preparation methods and uses of maleate salt and crystalline forms” (CHIA TAI TIANQING PHARMACEUTICAL GROUP CO., LTD., priority 2016, dated 2020)
